Measured values published in US10399949B2, “NK1 receptor antagonist” (KISSEI PHARMACEUTICAL CO., LTD., priority 2015, dated 2019).

Assays:
human NK1 receptor = target: T1, human NK1 receptor (Homo sapiens, UniProt P25103); assay: Affinity for human NK1 receptor (125I-substance P receptor binding test, membrane fraction); conditions: membrane fraction of human NK1 receptor-expressing 293T cells, room temperature 60 minutes, read-out: pIC50 (inverse logarithm of the concentration required for 50% inhibition of 125I-substance P binding) (converted)
T1 construct: expressed in transfected cells; host or cells: 293T cells (RIKEN), transient transfection with pcDNA3.1(-) plasmid
T1 sequence (P25103 whole entry): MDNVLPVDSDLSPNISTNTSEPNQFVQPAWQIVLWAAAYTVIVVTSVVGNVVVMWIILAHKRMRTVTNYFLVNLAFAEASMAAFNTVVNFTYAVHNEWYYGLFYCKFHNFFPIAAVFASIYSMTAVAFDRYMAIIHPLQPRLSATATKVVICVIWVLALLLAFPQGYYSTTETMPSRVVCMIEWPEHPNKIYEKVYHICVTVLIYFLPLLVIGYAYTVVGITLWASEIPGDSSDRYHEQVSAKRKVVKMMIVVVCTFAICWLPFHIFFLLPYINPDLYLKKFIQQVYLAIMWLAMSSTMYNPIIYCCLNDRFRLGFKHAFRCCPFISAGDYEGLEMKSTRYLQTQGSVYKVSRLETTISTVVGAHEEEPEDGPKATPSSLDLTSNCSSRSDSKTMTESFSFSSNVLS
Protocol: Affinity for Human NK1 Receptor
(3) Measurement of Binding Affinity to Human NK1 Receptor
(3-1) Preparation of Membrane Fraction from Human NK1 Receptor-Expressing Cells
Human NK1 receptor-expressing cells were prepared in a 175 cm^2 culture flask (Nippon Becton Dickinson). The formation of a complex of the human NK1 receptor expression plasmid and Lipofectamine 2000 was performed by calculating the culture area ratio and increasing the scale of the method described in the above 2-4 by the ratio. The human NK1 receptor-expressing cells were collected in a buffer solution for the membrane fraction preparation (50 mM Tris (Wako Pure Chemical), 120 mM sodium chloride (Wako Pure Chemical Industries), 5 mM potassium chloride (Wako Pure Chemical Industries), 1 mM ethylenediaminetetraacetic acid (Sigma), 0.002 mg/mL chymostatin (Peptide Institute), 0.04 mg/bacitracin (Wako Pure Chemical Industries), 0.005 mg/mL phosphoramidon (Peptide Institute) and 0.5 mM phenylmethylsulfonyl fluoride (Wako Pure Chemical Industries), pH7.4) and centrifuged at 1,880 g for 10 minutes, and the cell sediment was suspended in the buffer solution for the membrane fraction preparation. After freezing and thawing the cells once, the cells were homogenized using a Dounce-type homogenizer (cooled on ice, 1000 rpm, 20 times). The homogenized cell suspension was centrifuged at 20,000 rpm for 10 minutes, and the supernatant was removed to obtain cell sediment. The cell sediment was suspended again in the buffer solution for the membrane fraction preparation and homogenized using a Dounce-type homogenizer (cooled on ice, 1000 rpm, 30 times). The cell suspension was centrifuged at 20,000 rpm for 10 minutes, and the supernatant was removed to obtain cell sediment. The same homogenization and centrifugation were repeated again, and final cell sediment was obtained. The final cell sediment was suspended in a buffer solution for the receptor binding test (50 mM Tris (Wako Pure Chemical Industries), 3 mM manganese chloride (Wako Pure Chemical Industries), 0.002 mg/mL chymostatin (Peptide Institute), 0.04 mg/bacitracin (Wako Pure Chemical Industries) and 0.02% bovine serum albumin (Sigma), pH 7.4), and the protein concentration was measured using BCA Protein Assay Kit (Pierce).
(3-2) Receptor Binding Test
The buffer solution for the receptor binding test was dispensed to the wells of a 96-well assay plate (Greiner) at 22.5 μL/well. DMSO solutions of a test compound, which were prepared at an 80-time higher concentration using 100% dimethyl sulfoxide (DMSO), were added to the wells at 2.5 μL/well (final concentrations of 1 nM to 100 nM), and the solutions were mixed. As a radiolabeled ligand, ^125I-substance P (Substance P, [^125I]Tyr^8-, PerkinElmer) was used. ^125I-substance P was diluted with the buffer solution for the receptor binding test to a concentration resulting in […] and added to the 96-well assay plate, and the solutions were mixed. The membrane fraction prepared from the human NK1 receptor-expressing cells was diluted with the buffer solution for the receptor binding test to a concentration resulting in 8 to 10 μg/well, suspended until the suspension became in such a homogenous state that the suspension could flow through a 27G injection needle smoothly and then added to the 96-well assay plate at 150 μL/well. Then, the plate was incubated at room temperature for 60 minutes while shaking the plate. […]

NK1 receptor = target: T2, NK1 receptor (Meriones unguiculatus, UniProt Q5DUB1); assay: Effect on foot-tapping induced by NK1 receptor agonist GR73632 in gerbil; format: in vivo; conditions: male gerbil; 0.3 mg/kg from the jugular vein; GR73632 into the cerebral ventricle after 4 hours; foot-tapping period during 30 minutes
T2 construct: from tissue; host or cells: living male gerbil, central nervous system
T2 sequence (Q5DUB1 whole entry): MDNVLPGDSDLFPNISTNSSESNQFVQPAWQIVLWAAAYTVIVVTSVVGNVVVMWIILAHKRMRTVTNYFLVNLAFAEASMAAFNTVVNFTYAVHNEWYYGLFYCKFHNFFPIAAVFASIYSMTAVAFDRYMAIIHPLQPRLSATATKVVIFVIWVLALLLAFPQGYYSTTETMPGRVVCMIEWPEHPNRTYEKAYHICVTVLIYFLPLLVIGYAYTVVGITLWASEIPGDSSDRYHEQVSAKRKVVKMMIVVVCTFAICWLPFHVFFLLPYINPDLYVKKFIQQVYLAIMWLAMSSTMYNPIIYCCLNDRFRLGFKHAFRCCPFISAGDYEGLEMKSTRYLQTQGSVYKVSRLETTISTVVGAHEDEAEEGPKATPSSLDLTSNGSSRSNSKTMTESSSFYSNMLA
Protocol: (1) Effect on Foot-tapping
The test compound solution was prepared by dissolving the test compound in a vehicle (a mixture of 50% N,N-dimethylacetamide (Wako Pure Chemical Industries), 30% propylene glycol (Wako Pure Chemical Industries), 4% 2-hydroxypropyl-β-cyclodextrin (Wako Pure Chemical Industries) and 16% distilled water).
A male gerbil (Japan SLC) was anesthetized with isoflurane, and 0.3 mg/kg of a test compound was administered from the jugular vein. After 4 hours, GR73632 (5 pmol/5 μL saline), which is an NK1 receptor agonist, was administered into the cerebral ventricle at the part 1 mm lateral to and 4.5 mm below the bregma in the head, under anesthesia with isoflurane. After the administration, the gerbil was moved to an observation cage, and the foot-tapping period during 30 minutes after the recovery of the righting reflex was measured. As a comparative example, aprepitant, which is an NK1 receptor antagonist, was tested in the same manner. The foot-tapping inhibition rate (%) of each test compound was calculated by the following equation. Foot-tapping inhibition rate (%)={1−(Foot-tapping period when test compound was administered)/(Foot-tapping period when solvent was administered)}×100 (2) Measurement of Drug Concentrations
In the table, Ex. No. means the Example number. Inhibition (%) means the foot-tapping inhibition rate, and Conc. […]

SMILES | IC50 (human NK1 receptor) [nM] | Inhibition(%) (foot-tapping inhibition rate) (NK1 receptor)
Cc1cc(F)ccc1[C@H]1CN(C[C@H]2CC[C@@H](CC(=O)O)CC2)CCN1C(=O)N(C)[C@H](C)c1cc(C(F)(F)F)cc(C(F)(F)F)c1 [Example 4, cis-{4-[(S)-4-{[(R)-1-(3,5-Bistrifluoromethylphenyl)ethyl]methylcarbamoyl}-3-(4-fluoro-2-methylphenyl)piperazin-1-ylmethyl]cyclohexyl}acetic acid] | 0.851 | 100
Cc1cc(F)ccc1[C@H]1CN(C[C@H]2CC[C@H](CC(=O)O)CC2)CCN1C(=O)N(C)[C@H](C)c1cc(C(F)(F)F)cc(C(F)(F)F)c1 [Example 5, trans-{4-[(S)-4-{[(R)-1-(3,5-Bistrifluoromethylphenyl)ethyl]methylcarbamoyl}-3-(4-fluoro-2-methylphenyl)piperazin-1-ylmethyl]cyclohexyl}acetic acid] | 0.851 | 100
